Key:
Cathepsin B = Cathepsin B (Homo sapiens, UniProt P07858); test: Cathepsin B activity assay; assay type: biochemical; conditions: 36 μM z-RR-AMC, 3.6 nM enzyme; pre-incubated 30 minutes at 25° C., 60 minutes at 37° C.; sigmoidal fit
Protocol: Cathepsin B was diluted in Cathepsin B buffer (20 mM Tris HCl pH 6.8; 1 mM EDTA; 1 mM DTT). Compounds stocks (100 mM) were stored at −20° C. in DMSO. Compounds were tested at the following final concentrations: 100 μM; 33.3 μM; 11.1 μM; 3.7 μM; 1.23 μM; 412 nM; 137 nM; 45.7 nM; 15.2 nM; 5 nM. Reactions were performed as duplicates in Black LJL 96 well plates (HE microplates; Molecular Devices; 20 μl final reaction volume). The substrate concentration for cathepsin B specificity assay was 36 μM (z-RR-AMC; Calbiochem). The concentration of the enzyme (Cathepsin B) in specificity assays was 3.6 nM. The concentrations were determined in order to perform specificity assays under initial velocities at fixed substrate concentration. Compounds were pre-incubated with enzymes for 30 minutes at 25° C. Reactions were initiated by addition of substrate to the plates containing the enzymes (+/− compounds) diluted in assay buffer. Reactions were incubated for 60 minutes at 37° C. Reactions were stopped by adding acetic acid (100 mM final). Readings were performed on a Pherastar Fluorescent Reader (BMG). δ Emission 380 nm; δ Excitation=460 nm. Data (mean values +/− standard deviation) were analyzed as % of control (no compound) and plotted as percentage versus the Log of the compound concentration using GraphPad (Prism). Data were fitted to a sigmoidal model (variable slope).

[1] = test system: PC-3 prostate cancer cells; test: PC3 cell viability and proliferation assay (MTS); assay type: cell-based; conditions: 72 hours incubation, mean of three independent experiments, read-out: PC3 GI50 D3
In short: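 PC-3 cells, seeded 24 h earlier, were treated in triplicate at 5 nM–10 μM with 0.5% final DMSO for 72 hours. Viability was read by 2-hour MTS conversion and absorbance at 492 nm. GI50 came from a sigmoidal variable-slope fit, averaged over three independent experiments.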

Compound	IC50 (Cathepsin B) [µM]	GI50 [1] [nM]
6-(7)-Chloro-1-methyl-2,3,4,10,10a-pentaaza-cyclopenta[b]fluoren-9-one [Example 3/A]	17.4	994
CC(C)c1nnc2nc3c(nn12)C(=O)c1ccccc1-3 [Example 1l/A, 1-lsopropyl-2,3,4,10,10a-pentaaza-cyclopenta[b]fluoren-9-one]	9.2	

— patent US20090181972A1, “Novel Inhibitors of Cysteine Proteases, the Pharmaceutical Compositions Thereof and their Therapeutic Applications” (priority 2005, published 2009)
